Experiment: Tested for the ability to inhibit Ins(1,4,5)P 3-phosphatase

## OC1C(O)C(OP(O)(O)=S)C(OP(O)(O)=S)C(O)C1OP(O)(O)=S (stereo not drawn) [(-)-chiro-inositol 1,4,6-trisphosphorothioate]
  Ki: 978 µM

Source: BindingDB's records for doi:10.1016/S0960-894X(00)80421-7 (1992)
